≈ marks a conversion by molar mass, not a printed value.
Key:
[1] = test system: Pseudomonas aeruginosa; assay: Antibacterial activity against Pseudomonas aeruginosa 2742 measured after 24 hrs by two-fold serial dilution method; format: functional; settings: Pseudomonas aeruginosa, 2742, 24 h
[2] = test system: Staphylococcus aureus; assay: Antibacterial activity against quinolone-resistant Staphylococcus aureus 3505 measured after 24 hrs by two-fold serial dilution method; format: functional; settings: Staphylococcus aureus, 3505, 24 h
[3] = test system: Streptococcus mutans; assay: Antibacterial activity against Streptococcus mutans 3065 measured after 24 hrs by two-fold serial dilution method; format: functional; settings: Streptococcus mutans, 3065, 24 h
[4] = test system: Staphylococcus aureus; assay: Antibacterial activity against Staphylococcus aureus 209 measured after 24 hrs by two-fold serial dilution method; format: functional; settings: Staphylococcus aureus, 209, 24 h
[5] = test system: Mus musculus; assay: Antiinflammatory activity in mouse assessed as inhibition of xylene-induced ear edema at 100 mg/kg, ip administered 30 mins before xylene challenge measured after 30 mins relative to DMSO-control; format: functional
[6] = test system: Staphylococcus aureus; assay: Antibacterial activity against methicillin-resistant Staphylococcus aureus 3167 measured after 24 hrs by two-fold serial dilution method; format: functional; settings: Staphylococcus aureus, 3167, 24 h
[7] = test system: Staphylococcus aureus; assay: Antibacterial activity against methicillin-resistant Staphylococcus aureus 3506 measured after 24 hrs by two-fold serial dilution method; format: functional; settings: Staphylococcus aureus, 3506, 24 h
[8] = test system: Candida albicans; assay: Antifungal activity against Candida albicans 7535 measured after 24 hrs by two-fold serial dilution method; format: functional; settings: Candida albicans, 7535, 24 h
[9] = test system: Staphylococcus aureus; assay: Antibacterial activity against quinolone-resistant Staphylococcus aureus 3519 measured after 24 hrs by two-fold serial dilution method; format: functional; settings: Staphylococcus aureus, 3519, 24 h
[10] = test system: Staphylococcus aureus; assay: Antibacterial activity against Staphylococcus aureus 503 measured after 24 hrs by two-fold serial dilution method; format: functional; settings: Staphylococcus aureus, 503, 24 h
[11] = test system: Escherichia coli; assay: Antibacterial activity against Escherichia coli 1924 measured after 24 hrs by two-fold serial dilution method; format: functional; settings: Escherichia coli, 1924, 24 h
[12] = test system: Escherichia coli; assay: Antibacterial activity against Escherichia coli 1356 measured after 24 hrs by two-fold serial dilution method; format: functional; settings: Escherichia coli, 1356, 24 h
[13] = test system: Staphylococcus aureus; assay: Antibacterial activity against Staphylococcus aureus 4220 measured after 24 hrs by two-fold serial dilution method; format: functional; settings: Staphylococcus aureus, 4220, 24 h
[14] = test system: Salmonella typhimurium; assay: Antibacterial activity against Salmonella typhimurium 1926 measured after 24 hrs by two-fold serial dilution method; format: functional, Salmonella enterica subsp. enterica serovar Typhimurium; settings: Salmonella enterica, 1926, 24 h

`O=C(N/N=C/c1ccc(/C=C/C(=O)c2ccccc2Br)cc1)c1ccncc1` gave an MIC [1] of over 64 µg/mL, an MIC [2] of over 64 µg/mL and an MIC [3] of 32 µg/mL (≈ 73.7 µM). It also gave an MIC [4] of 64 µg/mL (≈ 147 µM), an inhibition in vivo at 100 mg/kg [5] of 48.7% and an MIC [6] of over 64 µg/mL. For the same molecule, the MIC [7] was over 64 µg/mL, the MIC [8] was 64 µg/mL (≈ 147 µM) and the MIC [9] was over 64 µg/mL. For the same molecule, the MIC [10] was over 64 µg/mL, the MIC [11] was over 64 µg/mL and the MIC [12] was over 64 µg/mL. For the same molecule, the MIC [13] was 64 µg/mL (≈ 147 µM) and the MIC [14] was over 64 µg/mL.

In the case of `O=C(/C=C/c1ccc(/C=N/NC(=O)c2ccncc2)cc1)c1ccc(Br)cc1`, the MIC [1] is reported as over 64 µg/mL, the MIC [2] is reported as over 64 µg/mL and the MIC [3] is reported as over 64 µg/mL. For the same molecule, the MIC [4] was over 64 µg/mL, the inhibition in vivo at 100 mg/kg [5] was 55.7% and the MIC [6] was over 64 µg/mL. For the same molecule, the MIC [7] was 64 µg/mL (≈ 147 µM), the MIC [8] was over 64 µg/mL and the MIC [9] was 64 µg/mL (≈ 147 µM). The MIC [10] was over 64 µg/mL, the MIC [11] was over 64 µg/mL and the MIC [12] was over 64 µg/mL. It also gave an MIC [13] of over 64 µg/mL and an MIC [14] of over 64 µg/mL.

`Cc1ccc(C(=O)/C=C/c2ccc(/C=N/NC(=O)c3ccncc3)cc2)c(C)c1` gave an MIC [1] of over 64 µg/mL, an MIC [2] of over 64 µg/mL and an MIC [3] of over 64 µg/mL. For the same molecule, the MIC [4] was over 64 µg/mL, the inhibition in vivo at 100 mg/kg [5] was 58.5% and the MIC [6] was 64 µg/mL (≈ 167 µM). For the same molecule, the MIC [7] was 64 µg/mL (≈ 167 µM), the MIC [8] was over 64 µg/mL and the MIC [9] was over 64 µg/mL. The MIC [10] was over 64 µg/mL, the MIC [11] was over 64 µg/mL and the MIC [12] was over 64 µg/mL. The MIC [13] was over 64 µg/mL and the MIC [14] was over 64 µg/mL.

In the case of `O=C(/C=C/c1ccc(/C=N/NC(=O)c2ccncc2)cc1)c1cccc(Br)c1`, the MIC [1] is reported as over 64 µg/mL, the MIC [2] is reported as 64 µg/mL (≈ 147 µM) and the MIC [3] is reported as over 64 µg/mL. The MIC [4] was 64 µg/mL (≈ 147 µM), the inhibition in vivo at 100 mg/kg [5] was 14% and the MIC [6] was 32 µg/mL (≈ 73.7 µM). For the same molecule, the MIC [7] was 32 µg/mL (≈ 73.7 µM), the MIC [8] was over 64 µg/mL and the MIC [9] was 64 µg/mL (≈ 147 µM). The MIC [10] was 64 µg/mL (≈ 147 µM), the MIC [11] was over 64 µg/mL and the MIC [12] was over 64 µg/mL. The MIC [13] was 64 µg/mL (≈ 147 µM) and the MIC [14] was over 64 µg/mL.

Work on `Cc1ccc(C(=O)/C=C/c2ccc(/C=N/NC(=O)c3ccccc3)cc2)c(C)c1` yielded an MIC [1] of over 64 µg/mL, an MIC [2] of over 64 µg/mL and an MIC [3] of over 64 µg/mL. For the same molecule, the MIC [4] was over 64 µg/mL, the inhibition in vivo at 100 mg/kg [5] was 0.18% and the MIC [6] was over 64 µg/mL. The MIC [7] was over 64 µg/mL, the MIC [8] was over 64 µg/mL and the MIC [9] was over 64 µg/mL. It also gave an MIC [10] of over 64 µg/mL, an MIC [11] of over 64 µg/mL and an MIC [12] of over 64 µg/mL. It also gave an MIC [13] of over 64 µg/mL and an MIC [14] of over 64 µg/mL.

In the case of `O=C(N/N=C/c1ccc(/C=C/C(=O)c2ccc(Cl)cc2Cl)cc1)c1ccncc1`, the MIC [1] is reported as over 64 µg/mL, the MIC [2] is reported as 16 µg/mL (≈ 37.7 µM) and the MIC [3] is reported as 32 µg/mL (≈ 75.4 µM). For the same molecule, the MIC [4] was 16 µg/mL (≈ 37.7 µM), the inhibition in vivo at 100 mg/kg [5] was 83.8% and the MIC [6] was 16 µg/mL (≈ 37.7 µM). The MIC [7] was 16 µg/mL (≈ 37.7 µM), the MIC [8] was 4 µg/mL (≈ 9.43 µM) and the MIC [9] was 16 µg/mL (≈ 37.7 µM). It also gave an MIC [10] of 16 µg/mL (≈ 37.7 µM), an MIC [11] of 32 µg/mL (≈ 75.4 µM) and an MIC [12] of 32 µg/mL (≈ 75.4 µM). It also gave an MIC [13] of 8 µg/mL (≈ 18.9 µM) and an MIC [14] of over 64 µg/mL.

`O=C(/C=C/c1ccc(/C=N/NC(=O)c2ccncc2)cc1)c1ccc(F)cc1` showed an MIC [1] of over 64 µg/mL, an MIC [2] of 32 µg/mL (≈ 85.7 µM) and an MIC [3] of 64 µg/mL (≈ 171 µM). The MIC [4] was 32 µg/mL (≈ 85.7 µM), the inhibition in vivo at 100 mg/kg [5] was 51.1% and the MIC [6] was 32 µg/mL (≈ 85.7 µM). It also gave an MIC [7] of 32 µg/mL (≈ 85.7 µM), an MIC [8] of over 64 µg/mL and an MIC [9] of 32 µg/mL (≈ 85.7 µM). The MIC [10] was 64 µg/mL (≈ 171 µM), the MIC [11] was 64 µg/mL (≈ 171 µM) and the MIC [12] was 64 µg/mL (≈ 171 µM). For the same molecule, the MIC [13] was 32 µg/mL (≈ 85.7 µM) and the MIC [14] was over 64 µg/mL.

Work on `O=C(N/N=C/c1ccc(/C=C/C(=O)c2ccccc2Cl)cc1)c1cccc(Cl)c1` yielded an MIC [1] of over 64 µg/mL, an MIC [2] of 32 µg/mL (≈ 75.6 µM) and an MIC [3] of over 64 µg/mL. For the same molecule, the MIC [4] was 32 µg/mL (≈ 75.6 µM), the inhibition in vivo at 100 mg/kg [5] was 43% and the MIC [6] was 32 µg/mL (≈ 75.6 µM). The MIC [7] was 32 µg/mL (≈ 75.6 µM), the MIC [8] was over 64 µg/mL and the MIC [9] was 32 µg/mL (≈ 75.6 µM). For the same molecule, the MIC [10] was 32 µg/mL (≈ 75.6 µM), the MIC [11] was over 64 µg/mL and the MIC [12] was over 64 µg/mL. The MIC [13] was 32 µg/mL (≈ 75.6 µM) and the MIC [14] was over 64 µg/mL.

For `O=C(N/N=C/c1ccc(/C=C/C(=O)c2ccccc2F)cc1)c1ccncc1`, the MIC [1] was over 64 µg/mL, the MIC [2] was 64 µg/mL (≈ 171 µM) and the MIC [3] was 16 µg/mL (≈ 42.9 µM). For the same molecule, the MIC [4] was 64 µg/mL (≈ 171 µM), the inhibition in vivo at 100 mg/kg [5] was 51.2% and the MIC [6] was 64 µg/mL (≈ 171 µM). It also gave an MIC [7] of 64 µg/mL (≈ 171 µM), an MIC [8] of over 64 µg/mL and an MIC [9] of 64 µg/mL (≈ 171 µM). For the same molecule, the MIC [10] was 64 µg/mL (≈ 171 µM), the MIC [11] was 64 µg/mL (≈ 171 µM) and the MIC [12] was 64 µg/mL (≈ 171 µM). It also gave an MIC [13] of 64 µg/mL (≈ 171 µM) and an MIC [14] of over 64 µg/mL.

Source: ChEMBL document CHEMBL3868618, “Synthesis and biological evaluation of chalcone derivatives containing aminoguanidine or acylhydrazone moieties” (Bioorg Med Chem Lett, 2016)
